Experimental data: US7736636B2, “Method for treating occlusive vascular diseases & wound healing” (priority 2004, dated 2010)
Entries after “also recorded” stand apart in the source; their conditions may differ. Where two headings read alike, the source gives them in different places.

Columns and labels:
[1] = system: CAM of 10-day-old chick embryos; test: Chorioallantoic membrane (CAM) model of angiogenesis, Table 1; assay type: in vivo; conditions: for Mean Number of Branch Points ± SD: n = 8, control 76 ± 10
Procedure: (§1) Chorioallantoic membrane (CAM) Model of Angiogenesis: In vivo Neovascularization was examined by methods described previously. 9-12 Ten-day-old chick embryos were purchased from SPAFAS (Preston, Conn.) and incubated at 37° C. with 55% relative humidity. A hypodermic needle was used to make a small hole in the shell concealing the air sac, and a second hole was made on the broad side of the egg, directly over an avascular portion of the embryonic membrane that was identified by candling. A false air sac was created beneath the second hole by the application of negative pressure at the first hole, causing the CAM to separate from the shell. A window approximately 1.0 cm 2 was cut in the shell over the dropped CAM with a small-crafts grinding wheel (Dremel, division of Emerson Electric Co.), allowing direct access to the underlying CAM. FGF2 (1 μg/mL) was used as a standard proangiogenic agent to induce new blood vessel branches on the CAM of 10-day-old embryos. Sterile disks of No. 1 filter paper (Whatman International) were pretreated with 3 mg/mL cortisone acetate. Nicotine, nicotinic acid analogs, FGF2 or control solvents, and inhibitors were then applied to the disks and the disks allowed to dry. The disks were then suspended in PBS and placed on growing CAMs. Filters treated were placed on the first day of the 3-day incubation, with antibody to FGF2 added 30 minutes later to selected samples as indicated. At 24 hours, the MAPK cascade inhibitor PD 98059 was also added to CAMs topically by means of the filter disks.
(§2) Microscopic Analysis of CAM Sections: After incubation at 37° C. with 55% relative humidity for 3 days, the CAM tissue directly beneath each filter disk was resected from control and treated CAM samples. Tissues were washed 3× with PBS, placed in 35-mm Petri dishes (Nalge Nunc), and examined under an SV6 stereomicroscope (Zeiss) at ×50 magnification. Digital images of CAM sections exposed to filters were collected using a 3-charge-coupled device color video camera system (Toshiba) and analyzed with Image-Pro software (Media Cybernetics). The number of vessel branch points contained in a circular region equal to the area of each filter disk were counted. One image was counted in each CAM preparation, and findings from 8 to 10 CAM preparations were analyzed for each treatment condition (Nicotine, nicotinic acid analogs). The resulting angiogenesis index is the mean±SEM of new branch points in each set.

[2] = system: CAM of 10-day-old chick embryos; test: Nicotine, nicotinic acid and FGF2 alone and combined, branch points (Table 2, titled Release of FGF2 From Endothelial Cells); assay type: in vivo; conditions: for Average number of branch Points ± SD: n = 16, control 86 ± 14
Procedure: as §1
as §2, with “One image was counted in each CAM preparation, and findings from 8 to 10 CAM preparations were analyzed for each treatment condition (Nicotine, nicotinic acid analogs).” left out

[3] = system: normal human dermal fibroblast cells (NHDF); conditions: in vitro wound healing
Procedure: Additionally, a 3-dimensional wound healing method already established in our Laboratory will be utilized in this study (see below).
In Vitro 3D Wound Healing Assay of Human Dermal Fibroblast Cells:
Step 1: Prepare Contracted Collagen Gels: • 1) Coat 24-well plate with 350 ul 2% BSA at RT for 2 hr, • 2) 80% confluent NHDF (normal human dermal fibroblast cells, Passage 5-9) are trypsinized and neutralized with growth medium, centrifuge and wash once with PBS • 3) Prepare collagen-cell mixture, mix gently and always on ice:
• 4) Aspire 2% BSA from 24 well plate, add collagen-cell mixture 350 ul/well, and incubate the plate in 37° C. CO2 incubator. • 5) After 1 hr, add DMEM+5% FBS medium 0.5 ml/well, use a 10 ul tip Detach the collagen gel from the edge of each well, then incubate for 2 days. The fibroblast cells will contract the collagen gel
Step 2: Prepare 3D Fibrin Wound Clot and Embed Wounded Collagen Culture • 1) Prepare fibrinogen solution (1 mg/ml) with or without testing regents. 350 ul fibrinogen solution for each well in eppendorf tube.
• 2) Cut each contracted collagen gel from middle with scissors. Wash the gel with PBS and transfer the gel to the center of each well of 24 well plate • 3) Add 1.5 ul of human thrombin (0.25 U/ul) to each tube, mix well and then add the solution around the collagen gel, the solution will polymerize in 10 mins. […]

Question: How did the “New blood vessel generation / branch formation in the CAM model (in words)” value [1] turn out when `CN1CCCC1c1cccnc1` (stereo not drawn) [Nicotine] was run?
Answer: promoted new blood vessel generation; also recorded: promotes new blood vessel branch formation

Question: What about the “Mean Number of Branch Points ± SD” value ([1]; 0.1 μg) of the same compound?
Answer: 192 ± 11

Question: What about the “Average number of branch Points ± SD” value ([2]; 0.05 ug) of the same compound?
Answer: 145 ± 10

Question: What about the “Average number of branch Points ± SD” value ([2]; 0.1 ug) of the same compound?
Answer: 192 ± 11

Question: And the “Pro-angiogenesis effect compared with FGF2 (in words)” value ([2]; Table 2)?
Answer: comparable pro-angiogenesis effect to that shown with FGF2

Question: And the “Stimulation of wound healing (in words)” value [3]?
Answer: potent stimulation of wound healing

Question: What does the source list for `O=C(O)c1cccnc1` [Nicotinic acid]?
Answer: New blood vessel generation / branch formation in the CAM model (in words) [1]: promoted new blood vessel generation; Mean Number of Branch Points ± SD ([1]; 1.0 μg): 155 ± 16; New blood vessel generation / branch formation in the CAM model (in words) ([1]; listed as nicotinic acid): promotes new blood vessel branch formation

Question: What does the source list for “FGF2: basic fibroblast growth factor, used as a standard proangiogenic agent”?
Answer: Mean Number of Branch Points ± SD ([1]; 1.0 μg): 195 ± 22; Average number of branch Points ± SD ([2]; 0.5 ug): 115 ± 08; Average number of branch Points ± SD ([2]; 1.0 ug): 195 ± 22
